Measurements taken from patent US5382586A, “Aryl (or heteroaryl)piperazinylalkylazole derivatives, their preparation and their application as medicaments” (priority 1991, dated 1995).

Experiments:
[1] = system: conditioned avoidance response in male Wistar rats; experiment: conditioned avoidance response test (inhibition of the conditioned avoidance response; anxiolytic/tranquillising activity); type: in vivo, rat (male Wistar); details: rat; for Activity % (inhibition of the conditioned avoidance response): D = 80 mg/kg, p.o., 45 min before test; for ED50: po, 0.75 h
Description: Male Wistar rats weighing 200 grammes which have been trained to jump over a barrier in an avoidance and escape cage (shuttle box) (Letica, reference LI 910 and LI 2700) within 30 seconds of their being introduced into the cage are used in this test.
The products having an anxiolytic or tranquillising activity suppress the conditioned avoidance response.
Training: day one: 11 trials at 3 minute intervals. Electric shock to the paws after 30 seconds (5 mA, 0.1 s, 10 s).
Days two and three: 2 trials per day, with the selected rats only [sum of the scores for the first day (with the exception of the first trial)>14].
Test day: groups formed by selected rats. Oral administration of the product or the vehicle 45 minutes before the start of the study.

[2] = system: norepinephrine-induced death in rats; experiment: norepinephrine antagonism test in rats (antihypertensive activity); type: in vivo, rat (male Wister); details: for Activity % (norepinephrine antagonistic antihypertensive activity): D = 40 mg/kg, i.p., rat, norepinephrine 1.25 mg/kg i.v. after 2 hours; for ED50: Rattus norvegicus, ip, 2 h, read-out: ED50 (norepinephrine antagonistic antihypertensive activity)
Description: This activity is manifested by the protection of animals before death induced by an intravenous injection of norepinephrine, which produces a hypertensive attack in rats.
Male Wister rats weighing 200 grammes are used in this test. The product to be studied is administered intraperitoneally and 1.25 mg/kg (i.v.) of norepinephrine are administered after 2 hours.
The initial administration dose in these studies is 40 mg/kg (i.p.).

[3] = system: familiarisation process in mice; experiment: light box/dark box test: familiarisation process (improvement of cognition); type: in vivo, mouse; details: mice
Text: The influence of this product on the familiarisation process of mice in the light box/dark box test described by J. M. Barnes et al., (Pharmacol. Biochem. Behav., 1990, 35, 955-962) is studied. On the one hand, the effect on learning (the speed of familiarisation) and on the other hand the capacity for blocking contrary effects produced by escopolamine are studied.
The mouse is placed in the light zone of a box divided into two compartments, one brightly illuminated, the light box, and the other with little illumination, the dark box.
1) The number of times the mouse stands up on the hind paws in each compartment during a 5 minute period is counted (see Column 1 of the table below).
2) The activity in each compartment is given by counting the number of crossings through the squares which form the divisions of each compartment (see Column 2 of the table below).
3) The time passed in the dark box during the 5 minute counting period is determined (see Column 3 of the table below).
4) The initial latent period is determined, that is to say the time which elapses after the animal is placed in the light box, at the start of the test, before it enters the dark box (see Column 4 of the table below).
Two treatments with the vehicle are administered to the control animals per day. Two doses of 0.00001 ng/kg p.o. of compound 42 are administered per day to the animals treated with this product. The same operation is repeated daily for 5 days.
The animals learn to remain in the dark box for a longer period and to go into the box more rapidly.
On day six escopolamine (2×0.25 mg/kg, i.p.) is administered.
They recover the learned habit on day seven.

SMILES	Activity % (inhibition of the conditioned avoidance response) [1]	Activity % (norepinephrine antagonistic antihypertensive activity) [2]	ED50 [1]	ED50 [2]	cognition-improving activity [3]
Cc1nc(-c2ccccc2)c(-c2ccccc2)n1CCCCN1CCN(c2ncccn2)CC1 [Example 10]	38%	0%	–	–	–
Cc1nc(Cl)c(Cl)n1CCCCN1CCN(c2ncccn2)CC1 [Example 11, 4,5-dichloro-2-methyl-1-{4-[4-(2-pyrimidinyl)-1-piperazinyl]-butyl}-1H-imidazole]	82%	0%	–	–	–
CCc1nccn1CCCCN1CCN(c2ncccn2)CC1 [Example 12]	46%	0%	–	–	–
c1ccc(-c2nccn2CCCCN2CCN(c3ncccn3)CC2)cc1 [Example 13]	70%	0%	17.1 mg/kg	–	–
COC(=O)c1cn(CCCCN2CCN(c3ncccn3)CC2)cn1 [Example 14]	38%	0%	–	–	–
c1ccc(-c2cn(CCCCN3CCN(c4ncccn4)CC3)cn2)cc1 [Example 15]	73%	0%	28 mg/kg	–	–
c1cnc(N2CCN(CCCCn3cnc4ccccc43)CC2)nc1 [Example 16, 1-{4-[4-(2-pyrimidinyl)-1-piperazinyl]-butyl}-1H-benzimidazole]	100%	0%	6.1 mg/kg	–	–
c1cnc(N2CCN(CCCCn3cnc4cccnc43)CC2)nc1 [Example 17, 1-{4-[-4-(2-pyrimidinyl)-1-piperazinyl]-butyl}-3H-imidazo[5,4-b]pyridine]	86%	0%	21.9 mg/kg	–	–
c1cnc(N2CCN(CCCCn3cnc4ncccc43)CC2)nc1 [Example 18, 1-{4-[4-(2-pyrimidinyl)-1-piperazinyl]-butyl}-1H-imidazo[4,5-b]pyridine]	91%	100%	25.6 mg/kg	3.97 mg/kg	–
c1cnc(N2CCN(CCCCn3nnc4ccccc43)CC2)nc1 [Example 19]	99%	0%	–	–	–
Clc1nc2ccccc2n1CCCCN1CCN(c2ncccn2)CC1 [Example 20]	77%	0%	15.4 mg/kg	–	–
Clc1ccc2c(c1)ncn2CCCCN1CCN(c2ncccn2)CC1 [Example 21]	100%	0%	9.3 mg/kg	–	–
Clc1ccc2ncn(CCCCN3CCN(c4ncccn4)CC3)c2c1 [Example 22]	100%	0%	9.1 mg/kg	–	–
c1cnc(N2CCN(CCCCn3cncn3)CC2)nc1 [Example 23]	100%	50%	6.3 mg/kg	–	–
c1cnc(N2CCN(CCCCn3nc4ccccc4n3)CC2)nc1 [Example 24]	87%	50%	–	–	–
Cc1nc2ccccc2n1CCCCN1CCN(c2ncccn2)CC1 [Example 25]	52%	25%	61.7 mg/kg	–	–
Cc1cc2ncn(CCCCN3CCN(c4ncccn4)CC3)c2cc1C [Example 26]	88%	0%	34.5 mg/kg	–	–
COc1ccc(N2CCN(CCCCn3cc(Cl)cn3)CC2)cc1 [Example 27]	88%	0%	–	–	–

SMILES	Activity % (inhibition of the conditioned avoidance response) [1]	Activity % (norepinephrine antagonistic antihypertensive activity) [2]	ED50 [1]	ED50 [2]	cognition-improving activity [3]
COc1ccc(N2CCN(CCCCn3c(C)nc(Cl)c3Cl)CC2)cc1 [Example 28]	75%	100%	37.5 mg/kg	14 mg/kg	–
COc1ccccc1N1CCN(CCCCn2cc(Cl)cn2)CC1 [Example 29]	100%	100%	8.9 mg/kg	0.46 mg/kg	–
COc1ccccc1N1CCN(CCCCn2c(C)nc(Cl)c2Cl)CC1 [Example 30]	95%	100%	12.8 mg/kg	0.18 mg/kg	–
COc1cccc(N2CCN(CCCCn3cc(Cl)cn3)CC2)c1 [Example 31]	100%	0%	20.8 mg/kg	8.9 mg/kg	–
COc1ccc(N2CCN(CCCCn3cccc3)CC2)cc1 [Example 32]	83%	0%	50 mg/kg	–	–
COc1ccccc1N1CCN(CCCCn2cccc2)CC1 [Example 33]	99%	100%	23.9 mg/kg	2.23 mg/kg	–
c1ccc(N2CCN(CCCCn3cccc3)CC2)cc1 [Example 34]	96%	100%	23.7 mg/kg	10 mg/kg	–
Clc1cnn(CCCCN2CCN(c3ccccc3)CC2)c1 [Example 35, 4-chloro-1-[4-(4-phenyl-1-piperazinyl)-butyl]-1H-pyrazole]	100%	100%	20.7 mg/kg	4.1 mg/kg	–
Cc1nc(Cl)c(Cl)n1CCCCN1CCN(c2ccccc2)CC1 [Example 36]	76%	100%	42 mg/kg	7.6 mg/kg	–
Clc1cnn(CCCCN2CCN(c3ccccc3Cl)CC2)c1 [Example 37]	86%	100%	29.5 mg/kg	1.9 mg/kg	–
Cc1nc(Cl)c(Cl)n1CCCCN1CCN(c2ccccc2Cl)CC1 [Example 38]	78%	100%	–	1.3 mg/kg	–
Clc1cccc(N2CCN(CCCCn3cc(Cl)cn3)CC2)c1 [Example 39]	100%	0%	–	–	–
Cn1ccnc1N1CCN(CCCCn2cccn2)CC1 [Example 40]	28%	0%	–	–	–
COc1ccccc1N1CCN(CCn2cc(Cl)cn2)CC1 [Example 41]	52%	75%	–	5 mg/kg	–
Clc1cnn(CCCCN2CCN(c3nsc4ccccc34)CC2)c1 [Example 43]	100%	66%	–	–	–
Cc1nc(Cl)c(Cl)n1CCCCN1CCN(c2nsc3ccccc23)CC1 [Example 44]	95%	100%	–	–	–
COc1ccccc1N1CCN(CCCNc2cc(C)nn2C)CC1 [Example 45, 1,3-dimethyl-5-{3-[4-(2-methoxyphenyl)-1-piperazinyl]-propylamino}-1H-pyrazole]	100%	100%	–	2.8 mg/kg	–
NC(=O)CN1CCCC1=O [Piracetam, reference compound]	–	–	–	–	no activity
